Test results from the CheMixHub ionic liquid set.
Values joined by “and” are separate entries in the source; they are usually repeats but may differ in a detail not shown here. Equal values may be shown once. ± gives the uncertainty stated by the source.

Assay: xn = mol fraction of the nth substance listed

CC[n+]1ccccc1.O=S(=O)([N-]S(=O)(=O)C(F)(F)F)C(F)(F)F + O
viscosity [mPa·s], 101 kPa
Conditions	298.15 K	323.15 K	343.15 K	353.15 K
x2 = 0.005125	–	17.8 ± 1.1	–	8.68 ± 0.53
x2 = 0.08693	34.1 ± 2.1	15.47 ± 0.94	9.7 ± 0.59	–

CCO + O + CCCCCCCCCCCCOS(=O)(=O)[O-].[Na+]
298 K, 100 kPa, frequency 0.001 MHz
Conditions	electrical conductivity [S/m]
x1 = 0.01596, x3 = 0	0.00025
x1 = 0.02563, x2 = 0.9744	0.00026
x1 = 0.04623, x2 = 0.9538	0.00029
x1 = 0.06864, x2 = 0.9314	0.00031 ± 0.00057
x1 = 0.1203, x2 = 0.8797	0.00025
x1 = 0.1463, x2 = 0.8537	0.00025

CCC[N+]1(C)CCCCC1.[Br-] + O + CCCC[N+]1(C)CCCCC1.[Br-]
101 kPa
Conditions	viscosity [mPa·s]
298.15 K, x1 = 0.00449, x3 = 0.004485	1.305 ± 0.016
298.15 K, x2 = 0.9578, x1 = 0.01421	2.565 ± 0.032
303.15 K, x1 = 0.00449, x3 = 0.004485	1.135 ± 0.014
303.15 K, x2 = 0.9577, x1 = 0.02117	2.165 ± 0.027
303.15 K, x2 = 0.9734, x1 = 0.00893	1.615 ± 0.02
308.15 K, x2 = 0.9733, x1 = 0.01334	1.355 ± 0.017

CCCC[N+]1(C)CCCCC1.[Br-] + O + CC[N+]1(C)CCCCC1.[Br-]
101 kPa
Conditions	viscosity [mPa·s]
293.15 K, x2 = 0.9577, x3 = 0.02117	2.805 ± 0.034
293.15 K, x3 = 0.005974, x1 = 0.002995	1.365 ± 0.017
298.15 K, x2 = 0.9734, x3 = 0.00893	1.815 ± 0.023
308.15 K, x2 = 0.9578, x3 = 0.0142	1.845 ± 0.023

CCC[N+]1(C)CCCCC1.[Br-] + O + CC[N+]1(C)CCCCC1.[Br-]
Conditions	viscosity [mPa·s]
293.15 K, 101 kPa, x3 = 0.00299, x1 = 0.005976	1.575 ± 0.019

CCCC[N+](CCCC)(CCCC)Cc1ccccc1.[Cl-] + O=C(O)[C@@H]1CCCN1 + O
electrical conductivity [S/m], 101 kPa
Conditions	298.15 K	303.15 K	308.15 K
x2 = 1.802e-05, x1 = 1.802e-05	0.0132 ± 0.0013	0.0149 ± 0.0015	0.0164 ± 0.0016
x2 = 1.804e-05, x1 = 5.406e-05	0.0279 ± 0.0028	0.0297 ± 0.003	0.0314 ± 0.0031
x2 = 1.805e-05, x1 = 9.009e-05	0.0321 ± 0.0032	0.0338 ± 0.0034	0.0353 ± 0.0035
x2 = 4.506e-05, x1 = 1.802e-05	0.0156 ± 0.0016	0.0164 ± 0.0016	0.0176 ± 0.0018
x2 = 4.509e-05, x1 = 5.405e-05	0.0298 ± 0.003	0.0313 ± 0.0031	0.0329 ± 0.0033
x2 = 4.511e-05, x1 = 9.009e-05	0.0339 ± 0.0034	0.0356 ± 0.0036	0.0372 ± 0.0037
x2 = 7.21e-05, x1 = 1.802e-05	0.0169 ± 0.0017	0.0183 ± 0.0018	0.0197 ± 0.002
x2 = 7.214e-05, x1 = 5.405e-05	0.0314 ± 0.0031	0.0327 ± 0.0033	0.0341 ± 0.0034
x2 = 7.218e-05, x1 = 9.009e-05	0.0353 ± 0.0035	0.0367 ± 0.0037	0.0387 ± 0.0039
x2 = 9.913e-05, x1 = 1.802e-05	0.0184 ± 0.0018	0.0206 ± 0.0021	0.0213 ± 0.0021
x2 = 9.919e-05, x1 = 5.405e-05	0.0329 ± 0.0033	0.0335 ± 0.0034	0.0354 ± 0.0035
x2 = 9.925e-05, x1 = 9.008e-05	0.0368 ± 0.0037	0.0383 ± 0.0038	0.0409 ± 0.0041
x2 = 0.0001262, x1 = 1.802e-05	0.0209 ± 0.0021	0.0219 ± 0.0022	0.0229 ± 0.0023
x2 = 0.0001262, x1 = 5.405e-05	0.0337 ± 0.0034	0.0349 ± 0.0035	0.0366 ± 0.0037
x2 = 0.0001263, x1 = 9.008e-05	0.0384 ± 0.0038	0.0398 ± 0.004	0.0423 ± 0.0042
x2 = 0.0001532, x1 = 1.802e-05	0.0223 ± 0.0022	0.0239 ± 0.0024	0.0251 ± 0.0025
x2 = 0.0001533, x1 = 5.405e-05	0.0345 ± 0.0035	0.0358 ± 0.0036	0.0381 ± 0.0038
x2 = 0.0001534, x1 = 9.008e-05	0.0395 ± 0.004	0.0416 ± 0.0042	0.0445 ± 0.0045

CCCC[N+](CCCC)(CCCC)Cc1ccccc1.[Cl-] + O=C([O-])C1=NN(c2ccc(S(=O)(=O)[O-])cc2)C(=O)C1N=Nc1ccc(S(=O)(=O)[O-])cc1.[Na+].[Na+].[Na+] + O
electrical conductivity [S/m], 101.3 kPa, frequency 0.001 MHz
Conditions	298.15 K	308.15 K	318.15 K
x2 = 0, x1 = 1.802e-05	0.0104 ± 0.0043	0.0139 ± 0.0051	0.0173 ± 0.0061
x2 = 0, x1 = 5.406e-05	0.0231 ± 0.0047	0.0284 ± 0.0056	0.0345 ± 0.0071
x2 = 0, x1 = 9.009e-05	0.0367 ± 0.006	0.0457 ± 0.0069	0.0546 ± 0.0081

viscosity [mPa·s], 101.3 kPa
Conditions	298.15 K	308.15 K	318.15 K
x2 = 0, x1 = 1.802e-05	0.906 ± 0.045	0.775 ± 0.045	0.643 ± 0.045
x2 = 0, x1 = 5.406e-05	0.923 ± 0.045	0.793 ± 0.045	0.659 ± 0.045
x2 = 0, x1 = 9.009e-05	0.942 ± 0.045	–	–

CC(C)C[P+](C)(CC(C)C)CC(C)C.Cc1ccc(S(=O)(=O)[O-])cc1 + O=S1(=O)CCCC1
101.33 kPa, x1 = 0.5
Conditions	viscosity [mPa·s]
303.18 K	216 ± 52
313.18 K	122 ± 26
323.15 K	69 ± 14
333.13 K	44.4 ± 9
343.09 K	27.4 ± 5.5
353.11 K	18.5 ± 3.7

CCCCCC[N+]1(C)CCCC1.O=S(=O)([N-]S(=O)(=O)C(F)(F)F)C(F)(F)F + O=S1(=O)CCCC1
101.33 kPa, x1 = 0.5
Conditions	viscosity [mPa·s]
303.25 K	30.7 ± 6.2
313.25 K	22.1 ± 4.5
323.25 K	16.4 ± 3.3
333.15 K	12.2 ± 2.5
343.15 K	9 ± 1.8
353.15 K	7.2 ± 1.4

CCC(=O)OC + O=S(=O)([N-]S(=O)(=O)C(F)(F)F)C(F)(F)F.[Li+]
298.1 K, 100 kPa, x2 = 0.333
Conditions	electrical conductivity [S/m]	viscosity [mPa·s]
–	0.23 ± 0.01	21.6 ± 0.5

O=S(=O)([N-]S(=O)(=O)C(F)(F)F)C(F)(F)F.[Rb+] + O=S(=O)([N-]S(=O)(=O)C(F)(F)F)C(F)(F)F.[Li+]
100 kPa, x2 = 0.25
Conditions	viscosity [mPa·s]
452.5 K	47.7 ± 5
463 K	36.9 ± 3.8
483.1 K	22.7 ± 2.3
523.6 K	10.2 ± 1
531.9 K	8.55 ± 0.87

100 kPa, frequency 1 MHz, x2 = 0.25
Conditions	electrical conductivity [S/m]
512.5 K	2.82 ± 0.28
531.5 K	3.59 ± 0.36

CCC(=O)OC + O=S(=O)([N-]S(=O)(=O)C(F)(F)F)C(F)(F)F.[Li+] + COC(=O)OC
298.15 K, 100 kPa
Conditions	viscosity [mPa·s]
x2 = 0.333, x3 = 0	21.6 ± 0.5
x2 = 0.333, x3 = 0.3335	38.6 ± 1.1

O=S(=O)([N-]S(=O)(=O)C(F)(F)C(F)(F)F)C(F)(F)F.[Li+] + O=S(=O)([O-])C(F)(F)F.[Li+] + O
101 kPa
Conditions	electrical conductivity, x1 = 0.1527, x2 = 0.1527 [S/m]	electrical conductivity, x1 = 0.2128, x2 = 0.08265	electrical conductivity, x1 = 0.2128, x2 = 0.1527 [S/m]	electrical conductivity, x1 = 0.2551, x2 = 0.08265	electrical conductivity, x1 = 0.2649, x2 = 0 [S/m]	electrical conductivity, x1 = 0.3106, x2 = 0.1527 [S/m]	viscosity, x1 = 0.2128, x2 = 0.08265 [mPa·s]	viscosity, x1 = 0.2551, x2 = 0.08265 [mPa·s]	viscosity, x1 = 0.2649, x2 = 0 [mPa·s]
283 K	–	0.39 ± 0.008 S/m	–	0.195 ± 0.004 S/m	0.36 ± 0.007	–	186 ± 5	406 ± 14	255 ± 8
293 K	–	0.57 ± 0.011 S/m	–	0.298 ± 0.006 S/m	0.531 ± 0.011	–	110 ± 3	228 ± 7	145 ± 4
298.1 K	0.83 ± 0.02	0.675 S/m and 0.68 S/m	0.41 ± 0.01	0.362 S/m and 0.37 S/m	0.646 ± 0.013	0.16 ± 0.01	87 ± 2.3	177 ± 5	114 ± 3
303 K	–	0.788 ± 0.016 S/m	–	0.433 ± 0.009 S/m	0.762 ± 0.015	–	70.9 ± 1.8	141 ± 4	89.8 ± 2.5
313 K	–	1.05 ± 0.02 S/m	–	0.599 ± 0.012 S/m	1.02 ± 0.02	–	48.4 ± 1.3	90.1 ± 2.2	58.8 ± 1.7
323 K	–	1.36 ± 0.03 S/m	–	0.791 ± 0.016 S/m	1.33 ± 0.03	–	33.9 ± 1	61.6 ± 1.5	40.2 ± 1.3
333 K	–	1.7 ± 0.03 S/m	–	1.02 ± 0.02 S/m	1.67 ± 0.03	–	24.8 ± 0.9	43.2 ± 1.1	29.1 ± 1.2

C[N+](C)(CCO)CCOCCO.[Cl-] + OCCO
101 kPa, x1 = 0.3333
Conditions	viscosity [mPa·s]
283.15 K	242.4 ± 6.9
288.15 K	177.4 ± 4.6
293.15 K	131.9 ± 3.2
298.15 K	100.9 ± 2.3
303.15 K	78.8 ± 1.7
308.15 K	62.2 ± 1.3
313.15 K	49.8 ± 1
318.15 K	40.49 ± 0.85
323.15 K	33.3 ± 0.7
328.15 K	27.72 ± 0.58
333.15 K	23.38 ± 0.49
338.15 K	19.82 ± 0.41
343.15 K	17 ± 0.36
348.15 K	14.73 ± 0.31
353.15 K	12.94 ± 0.27
